Like-named read-outs stand apart in the source and are kept apart here.
Experiments:
[1] = target: T1, human GCS (Homo sapiens, UniProt Q16739); test: Inhibition of GCS (human recombinant GCS expressed in insect cells); type: biochemical; set-up: made in house; host or cells: insect cells
T1 sequence (Q16739 1-394): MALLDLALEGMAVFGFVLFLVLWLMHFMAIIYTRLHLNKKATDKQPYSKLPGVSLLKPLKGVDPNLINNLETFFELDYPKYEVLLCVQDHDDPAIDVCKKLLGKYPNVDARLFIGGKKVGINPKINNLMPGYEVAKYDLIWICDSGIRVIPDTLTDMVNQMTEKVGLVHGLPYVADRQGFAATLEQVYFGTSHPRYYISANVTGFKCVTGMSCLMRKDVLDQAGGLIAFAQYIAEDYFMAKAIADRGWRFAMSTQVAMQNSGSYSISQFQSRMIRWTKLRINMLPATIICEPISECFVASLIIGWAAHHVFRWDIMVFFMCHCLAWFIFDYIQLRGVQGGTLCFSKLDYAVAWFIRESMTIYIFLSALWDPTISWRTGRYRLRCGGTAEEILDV

[2] = target: T2, non-lysosomal-β-glucocerebrosidase (Homo sapiens, UniProt Q9HCG7); test: Inhibition of non-lysosomal-β-glucocerebrosidase (whole cell extracts of MCF7); type: biochemical
T2 construct: endogenous in cells; host or cells: MCF7 whole cell extracts
T2 sequence (Q9HCG7 1-927): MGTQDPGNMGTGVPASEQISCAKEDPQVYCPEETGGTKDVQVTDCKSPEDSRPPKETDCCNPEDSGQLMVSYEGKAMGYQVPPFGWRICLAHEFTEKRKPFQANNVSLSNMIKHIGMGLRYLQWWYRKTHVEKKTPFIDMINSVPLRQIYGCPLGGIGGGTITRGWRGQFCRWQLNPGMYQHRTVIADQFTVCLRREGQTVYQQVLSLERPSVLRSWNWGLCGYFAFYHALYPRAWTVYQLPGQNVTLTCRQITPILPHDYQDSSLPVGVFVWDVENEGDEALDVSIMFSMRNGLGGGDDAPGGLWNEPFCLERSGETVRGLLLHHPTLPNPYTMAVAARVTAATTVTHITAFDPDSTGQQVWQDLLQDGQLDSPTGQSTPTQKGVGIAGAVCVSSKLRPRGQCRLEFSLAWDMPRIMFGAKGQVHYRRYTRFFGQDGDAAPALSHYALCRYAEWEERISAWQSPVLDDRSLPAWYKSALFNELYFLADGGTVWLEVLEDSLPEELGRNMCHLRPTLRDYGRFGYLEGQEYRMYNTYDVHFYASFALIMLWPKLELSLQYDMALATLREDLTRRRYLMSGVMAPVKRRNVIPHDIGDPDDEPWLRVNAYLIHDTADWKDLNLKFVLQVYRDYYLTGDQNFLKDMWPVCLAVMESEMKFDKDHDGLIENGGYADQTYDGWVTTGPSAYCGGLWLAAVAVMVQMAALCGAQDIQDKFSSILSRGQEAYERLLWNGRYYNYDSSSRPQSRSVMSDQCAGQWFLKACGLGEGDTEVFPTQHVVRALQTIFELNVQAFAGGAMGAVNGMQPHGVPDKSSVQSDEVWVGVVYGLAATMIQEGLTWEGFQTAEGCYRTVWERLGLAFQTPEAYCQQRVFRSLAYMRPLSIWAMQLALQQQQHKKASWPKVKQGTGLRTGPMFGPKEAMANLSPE
Procedure: The assay for inhibition of non-lysosomal-β-glucocerebrosidase was essentially carried out as described in Overkleeft, H. S. et al., J. Biol. Chem., (1998) 273, 26522-26527 with the following differences: whole cell extracts of MCF7 (a human breast carcinoma cell line) was used as the source of the enzyme instead of splenic membrane suspensions; 5mM instead of 3Mm, 4-MU β-glucoside was used as substrate and 0.2M citrate/phosphate (pH 5.8) was used instead of McIlvaine buffer.

[3] = target: T1, human GCS; test: Cell-based IC50 for GCS inhibition by measuring glucosylceramide (GlcCer) depletion in MCF-7 cells; conditions: MCF-7 cells cultured 5-7 days; GlcCer depletion by HPTLC; read-out: Inhibition of GCS Cellular-based (IC50 μM)
[4] = test system: glycolipid biosynthesis; conditions: as disclosed in EP-A-0698012; cited from earlier work

O=C(NCc1ccc(F)cc1)c1ccc(CN2C[C@H](O)[C@@H](O)[C@@H](O)[C@@H]2CO)cc1 [Example 1, Benzamide, N-[(4-fluorophenyl)methyl]4-[[(2S,3S,4R,5S)-3,4,5-trihydroxy-2-(hydroxymethyl)-1-piperidinyl]methyl]-,]
IC50 [1]: 2.2 µM

OC[C@H]1[C@H](O)[C@H](O)[C@@H](O)CN1Cc1ccc(OCc2ccccc2)cc1 [Example 2, 3,4,5-Piperidinetriol, 2-(hydroxymethyl)-1-[[4-(phenylmethoxy)phenyl]methyl]-, (2S,3S,4R,5S)]
IC50 [2]: 9.4 µM | IC50 [3]: < 0.1 µM | IC50 [1]: 0.66 µM

C[C@H](NC(=O)c1ccc(CN2C[C@H](O)[C@@H](O)[C@@H](O)[C@@H]2CO)cc1)c1ccccc1 [Example 3, Benzamide, N-[1-(S)-(phenyl)ethyl]-4-[[(2S,3S,4R,5S)-3,4,5-trihydroxy-2-(hydroxymethyl)-1-piperidinyl]methyl]-,]
IC50 [2]: 14.9 µM | IC50 [1]: 7.2 µM

CCCN(CCC)c1ccc(CN2C[C@H](O)[C@@H](O)[C@@H](O)[C@@H]2CO)cc1C#N [Example 4, 3,4,5-Piperidinetriol, 1-[(3-cyano-4-(dipropylamino)phenyl)methyl]-2-(hydroxymethyl), (2S,3S,4R,5S)]
IC50 ([2]; MCF7 whole cell extract, 5mM 4-MU β-glucoside, citrate/phosphate pH 5.8, read-out: Inhibition of non-lysosomal-β-glucocerebrosidase (IC50 μM)): 1.93 µM | IC50 [1]: 0.62 µM

C[C@@H](NC(=O)c1ccc(CN2C[C@H](O)[C@@H](O)[C@@H](O)[C@@H]2CO)cc1)c1ccccc1 [Example 6, Benzamide, N-[1-(R)-(phenyl)ethyl]4-[[(2S,3S,4R,5S)-3,4,5-trihydroxy-2-(hydroxymethyl)-1-piperidinyl]methyl]-,]
IC50 [3]: 1 µM

C[C@@H](NC(=O)c1ccc(CN2C[C@H](O)[C@@H](O)[C@@H](O)[C@@H]2CO)cc1)c1ccc(F)cc1 [Example 7, Benzamide, N-[1-(R)-(4-fluorophenyl)ethyl]-4-[[(2S,3S,4R,5S)-3,4,5-trihydroxy-2-(hydroxymethyl)-1-piperidinyl]methyl]-,]
IC50 [2]: > 100 µM | IC50 [1]: 4.7 µM

CCCCN1C[C@@H](O)[C@H](O)[C@H](O)[C@@H]1C [NB-DFJ]
Inhibition of glycolipid biosynthesis [4]: do not act as inhibitors of glycolipid biosynthesis

CCCCN1C[C@@H](O)[C@@H](O)[C@H](O)[C@H]1CO [NB-DMJ]
Inhibition of glycolipid biosynthesis [4]: do not act as inhibitors of glycolipid biosynthesis

CCCCN1C[C@H](NC(C)=O)[C@@H](O)[C@H](O)[C@H]1CO [NB-NAG]
Inhibition of glycolipid biosynthesis [4]: do not act as inhibitors of glycolipid biosynthesis
